Data published in publication PMC9794698, “Structure optimization of new tumor-selective Passerini α-acyloxy carboxamides as Caspase-3/7 activators” (Scientific Reports, 2022).
Where “and” joins values, the source holds several entries; their conditions need not be identical. Identical values can stand only once. Like-named read-outs stand apart in the source and are kept apart here.

Tests used:
[1] = tested on: caspase-3/7; test: Caspase-3/7 activation assay (ApoONE kit) in HepG-2 cells; format: cell-based, human; conditions: HepG-2 cells treated with IC50 doses; relative to untreated cells; mean ± SEM
Method: (§1) ApoONE® Caspase-3/7 kit was used following the manufacturer’s instructions (Supplementary data).
(§2) 5.2. Caspase-3/7 activation assay
(§3) The caspase 3/7 activation was assessed, as a key indicator in caspase-dependent apoptosis, using ApoONE® Caspase-3/7 kit following the manufacturer’s instructions. This kit used a nonfluorescence substrate […]
(§4) the generation of the fluorescence signals of Rhodamine 110. Thesesignal were measured at 490 nm excitation and 520 nm emission using the fluorescence microplate reader (BMG LabTech, Germany). […]

[2] = tested on: Caco-2 cells; test: MTT cytotoxicity assay, colorectal cancer cells; format: cell-based, human; conditions: for IC50: Homo sapiens; for Caco-2 SI: ratio of IC50 against normal cells (Wi-38) to IC50 against Caco-2
Method: (§5) Wi-38, Caco-2 and HepG-2 cells were cultured in DMEM medium-contained 10% FBS, seeded as 5 × 10^3 cells per well in 96-well cell culture plate and incubated at 37 °C in 5% CO2 incubator. After 24 h, serial concentrations of the test compounds were incubated with cells for 72 h. Cell viability was assayed via MTT protocol[27] (Supplementary data). IC50 values of the synthesized compounds were measured via the Graphpad Instat software. Morphological changes were examined using phase contrast inverted microscope with a digital camera (Olympus, Japan). […]
(§6) Normal human lung fibroblast Wi-38 cell line was used to detect cytotoxicity of the studied compounds.
(§7) Wi-38 cell line was cultured in DMEM medium-contained 10% fetal bovine serum (FBS), seeded as 5x10^3 cells per well in 96-well cell culture plate and incubated at 37 °C in 5% CO2 incubator. After 24 h for cell attachment, serial concentrations of the synthetic compounds and standard chemotherapy (5-fluorouracil) were incubated with Wi-38 cells for 72 h. Cell viability was assayed by MTT method Twenty microliters of 5 mg/ml MTT (Sigma, USA) was added to each well and the plate was incubated at 37 °C for 3 h. Then MTT solution was removed, 100 µl DMSO was added, and the absorbance of each well was measured with a microplate reader (BMG LabTech, Germany) at 570 nm. The dose (EC50 and EC100) values (at 50% and100% cell viability, respectively) of the tested compounds was estimated by the Graphpad Instat software.
(§8) The anticancer effect of the above-mentioned compounds was assayed using human colon cancer cell line (Caco-2) and liver cancer cell line (HepG-2) that were cultured in DMEM (Lonza, USA) supplemented with 10%
(§9) FBS. All cancer cells (5x10^3 cells/well) were seeded in sterile 96-well plates. After 24h, serial concentrations of the tested compounds and 5-fluorouracil (Fu) were incubated with two cancer cell lines for 72 h at 37 °C in 5% CO2 incubator. MTT method was done as described above. The half maximal inhibitory concentration (IC50) values were calculated using the Graphpad Instat software. Furthermore, cellular morphological changes before […]
(§10) contrast inverted microscope with a digital camera (Olympus, Japan).

[3] = tested on: Bcl2; test: RT-qPCR of Bcl2 expression in Caco-2 cells; format: cell-based, human; conditions: 0.06 µM for 72 h, mean ± SEM
Method: (§11) RNAs of untreated and treated cancer cells were extracted using Gene JET RNA purification kit (Thermo Scientific, USA). Then cDNAs were synthesized using cDNA Synthesis Kit (Thermo Scientific, USA). Real time PCR was performed using SYBR green master mix and specific primers (Forward/Reverse) as detailed in the supplementary data. […]
5.3. Real-time Quantitative PCR Analysis of Bcl2 […]
as §11, with “µM, for 72 h in 5% CO2 incubator. RNAs” for “RNAs”, “primers” for “primers (Forward/Reverse) as detailed in the supplementary data.”
The thermal cycling parameters were pre-denaturation, followed by 40 amplification cycles of 1 min at 95°C and 30 s at 60 °C and at 72°C for 30 sec. GAPDH mRNA was quantified to adjust the amount of mRNA in each sample. The 2−ΔΔCT equation was used to estimate change in gene expressions before and after treatment of cancer cells.
Table 1 primer sequences of the used genes

[4] = tested on: caspase-3/7; test: Caspase-3/7 activation assay (ApoONE kit) in Caco-2 cells; format: cell-based, human; conditions: Caco-2 cells treated with IC50 doses; relative to untreated cells; mean ± SEM
Method: as §1, §2, §3, §4

[5] = tested on: HepG-2 cells; test: MTT cytotoxicity assay, liver cancer cells; format: cell-based, human; conditions: for IC50: Homo sapiens, HepG2; for HepG-2 SI: ratio of IC50 against normal cells (Wi-38) to IC50 against HepG-2
Method: as §5, §6, §7, §8, §9, §10

[6] = tested on: Wi-38 cells; test: MTT cytotoxicity assay, normal human fibroblasts; format: cell-based; conditions: 72 h, mean ± SEM; for MNTC: dose at 100% cell viability, read-out: Wi-38 EC100
Method: as §5, §6
as §7, with “software. […]” for “software.”

[7] = tested on: Caco-2 cells; test: Flow cytometric analysis of apoptosis (annexin V/PI); format: cell-based, human; conditions: IC50 doses, 72 h, annexin-stained, mean ± SEM
Method: Reverse: 5′-[…]-3′
5.4. Flow cytometric analysis of apoptosis […]
human colon cancer cell line (Caco-2) for 72 h, at their minimum IC50 doses. After trypsinization, the untreated and treated cancer cells were stained with fluorescein isothiocyanate (FITC)-annexin V/ propidium iodide (PI) for 15 min. After washing with PBS, the annexin-stained apoptotic population was quantified using flow cytometry at FITC signal detector (FL1) against the phycoerythrin emission signal detector (FL2).

[8] = Caco-2, MTT, 72 h, mean ± SEM, read-out: Caco-2 IC50 (converted)
[9] = MTT, 72 h, mean ± SEM, read-out: HepG-2 IC50
[10] = microscopic examination after 72 h, compared to untreated and 5-FU-treated cells

With `O=c1[nH]cc(F)c(=O)[nH]1` [5-FU, 5-fluorouracil, reference compound] the “Relative fold increment in caspase 3/7 activity, HepG-2” value [1] was 1.001 ± 0.001 fold, the IC50 [2, 8] was 865 ± 39 nM and the “Caco-2 SI” value [2] was 2.301. The “Bcl2 gene relative fold change” value [3] was 0.948 ± 0.027 fold, the “Relative fold increment in caspase 3/7 activity, Caco-2” value [4] was 1.016 ± 0.009 fold and the IC50 [5, 9] was 1610 ± 28 nM. The “HepG-2 SI” value [5] was 1.233, the MNTC [6] was 840 ± 55 nM and the IC50 [6] was 1990 ± 135 nM.
For `CCOC(=O)c1ccc(NC(=O)C2(OC(=O)c3ccc4ccccc4n3)CCCCC2)cc1` [7b, 1-((4-(Ethoxycarbonyl)phenyl)carbamoyl)cyclohexyl quinoline-2-carboxylate], the IC50 [2, 8] was 172 ± 22 nM, the “Caco-2 SI” value [2] was 105.697 and the melting point was 103 to 105 °C. For the same molecule, the IC50 [5, 9] was 228 ± 27 nM, the “HepG-2 SI” value [5] was 79.736 and the MNTC [6] was 1790 ± 111 nM. The IC50 [6] was 18200 ± 2220 nM.
With `CCOC(=O)c1ccc(NC(=O)C2(OC(=O)c3ccccc3)CCCCC2)cc1` [7c, Ethyl-4-(1-(benzoyloxy)cyclohexanecarboxamido)benzoate] the IC50 [2, 8] was 276 ± 34 nM, the “Caco-2 SI” value [2] was 27.909 and the melting point was 140 to 142 °C. The IC50 [5, 9] was 184 ± 9 nM, the “HepG-2 SI” value [5] was 41.864 and the MNTC [6] was 2100 ± 92 nM. For the same molecule, the IC50 [6] was 7700 ± 321 nM.
For `CCOC(=O)c1ccc(NC(=O)C2(OC(=O)c3ccc(Cl)cc3)CCCCC2)cc1` [7d, 1-((4-(Ethoxycarbonyl)phenyl)carbamoyl)cyclohexyl 4-chlorobenzoate], the IC50 [2, 8] was 201 ± 19 nM, the “Caco-2 SI” value [2] was 123.174 and the melting point was 193 to 195 °C. The IC50 [5, 9] was 407 ± 16 nM, the “HepG-2 SI” value [5] was 60.830 and the MNTC [6] was 1700 ± 165 nM. The IC50 [6] was 24800 ± 10200 nM.
In the case of `CCOC(=O)c1ccc(NC(=O)C2(OC(=O)c3ccccc3Cl)CCCCC2)cc1` [7e, 1-((4-(Ethoxycarbonyl)phenyl)carbamoyl)cyclohexyl 2-chlorobenzoate], the IC50 [2, 8] is reported as 117 ± 10 nM, the “Caco-2 SI” value [2] is reported as 168.820 and the melting point is reported as 130 to 132 °C. For the same molecule, the IC50 [5, 9] was 130 ± 9 nM, the “HepG-2 SI” value [5] was 151.938 and the MNTC [6] was 1780 ± 169 nM. For the same molecule, the IC50 [6] was 19800 ± 1020 nM.
In the case of `CCOC(=O)c1ccc(NC(=O)C2(OC(=O)c3ccccc3I)CCCCC2)cc1` [7f, 1-((4-(Ethoxycarbonyl)phenyl)carbamoyl)cyclohexyl 2-iodobenzoate], the IC50 [2, 8] is reported as 129 ± 28 nM, the “Caco-2 SI” value [2] is reported as 132.209 and the melting point is reported as 148 to 150 °C. For the same molecule, the IC50 [5, 9] was 147 ± 46 nM, the “HepG-2 SI” value [5] was 116.020 and the MNTC [6] was 967 ± 26 nM. The IC50 [6] was 17100 ± 1690 nM.
In the case of `CCOC(=O)c1ccc(NC(=O)C2(OC(=O)Cc3ccccc3)CCCCC2)cc1` [7g, Ethyl-4-(1-(2-phenylacetoxy)cyclohexanecarboxamido)benzoate], the “Relative fold increment in caspase 3/7 activity, HepG-2” value [1] is reported as 4.118 ± 0.083 fold, the “SI against the screened cell lines” value ([2]; Caco-2 and HepG-2 cells versus Wi-38) is reported as 262–266 and the IC50 ([2]; Caco-2, -log (IC50), molar, read-out: Caco-2 IC50 (converted)) is reported as 64.1 nM. The IC50 [2, 8] was 64 ± 6 nM, the IC50 ([2]; Caco-2 and HepG-2 cells, MTT, read-out: IC50 against the screened cell lines) was 60 nM and the “Caco-2 LE” value ([2]; LE = 1.37 (pIC50)/NHA) was 0.328. The “Caco-2 LLE” value ([2]; LLE = pIC50–cLog P) was 3.453, the “Morphological alterations of treated Caco-2 cells” value [2, 10] was “severe shrinkage and morphological alterations” and the “Caco-2 SI” value [2] was 266.828. For the same molecule, the “Bcl2 gene relative fold change” value [3] was 0.087 ± 0.009 fold, the “% Apoptosis (total apoptotic cell population)” value [7] was 58.7% and 58.730 ± 2.930% and the IC50 [5, 9] was 65 ± 4 nM. For the same molecule, the IC50 ([5]; read-out: HepG-2 pIC50 (converted)) was 65 nM, the “Morphological alterations of treated HepG-2 cells” value [5, 10] was “severe shrinkage and morphological alterations” and the “HepG-2 SI” value [5] was 262.723. The MNTC [6] was 1300 ± 105 nM and the IC50 [6] was 17100 ± 2150 nM.
With `CCOC(=O)c1ccc(NC(=O)C2(OC(=O)C=Cc3ccc(C(F)(F)F)cc3)CCCCC2)cc1` [7h, Ethyl-4-(1-((3-(4-(trifluoromethyl)phenyl)acryloyl)oxy)cyclohexanecarboxamido)benzoate] the IC50 [2, 8] was 138 ± 14 nM, the “Caco-2 SI” value [2] was 135.340 and the melting point was 145 to 147 °C. The IC50 [5, 9] was 259 ± 73 nM, the “HepG-2 SI” value [5] was 72.111 and the MNTC [6] was 1650 ± 39 nM. For the same molecule, the IC50 [6] was 18700 ± 2040 nM.
For `CCOC(=O)c1ccc(NC(=O)C2(OC(=O)CNC(=O)c3ccc(NC(=O)OC(C)(C)C)cc3)CCCCC2)cc1` [7i, Ethyl-4-(1-(2-(4-((tert-butoxycarbonyl)amino)benzamido)acetoxy)cyclohexanecarboxamido) benzoate], the IC50 [2, 8] was 132 ± 50 nM, the “Caco-2 SI” value [2] was 172.765 and the melting point was 115 to 117 °C. The IC50 [5, 9] was 127 ± 44 nM, the “HepG-2 SI” value [5] was 179.566 and the MNTC [6] was 1630 ± 259 nM. For the same molecule, the IC50 [6] was 22800 ± 3100 nM.
With `CCOC(=O)c1ccc(NC(=O)C2(OC(=O)CS)CCCCC2)cc1` [7k, Ethyl-4-(1-(2-mercaptoacetoxy)cyclohexane-1-carboxamido)benzoate] the IC50 [2, 8] was 140 ± 3 nM, the “Caco-2 SI” value [2] was 69.057 and the melting point was 108 to 110 °C. The IC50 [5, 9] was 141 nM, the “HepG-2 SI” value [5] was 68.567 and the MNTC [6] was 1465 ± 10 nM. It also gave an IC50 [6] of 9670 ± 102 nM.
In the case of `CCOC(=O)c1ccc(NC(=O)C2(O)CCCCC2)cc1` [compound 9, Ethyl 4-(1-hydroxycyclohexanecarboxamido)benzoate], the IC50 [2, 8] is reported as 154 ± 7 nM, the “Caco-2 SI” value [2] is reported as 109.272 and the melting point is reported as 160 to 163 °C. The IC50 [5, 9] was 150 ± 4 nM, the “HepG-2 SI” value [5] was 112.186 and the MNTC [6] was 3220 ± 217 nM. It also gave an IC50 [6] of 16800 ± 3010 nM.
For `CCOC(=O)c1ccc(N2C(=O)OC3(CCCCC3)C2=O)cc1` [compound 11, Ethyl-4-(2,4-dioxo-1-oxa-3-azaspiro[4.5]decan-3-yl)benzoate], the IC50 [2, 8] was 239 ± 71 nM, the “Caco-2 SI” value [2] was 41.510 and the melting point was 143 to 145 °C. The IC50 [5, 9] was 209 ± 17 nM, the “HepG-2 SI” value [5] was 47.468 and the MNTC [6] was 4940 ± 1540 nM. The IC50 [6] was 9920 ± 1610 nM.
